According to patent US12329780B2, “Acute and chronic mitochondrial electron transport chain dysfunction treatments and graphenic materials for use thereof” (WILLIAM MARSH RICE UNIVERSITY, priority 2017, dated 2025):

What was measured:
[1] = Midpoint reduction potential; format: physicochemical
Source text: PEG-HCCs and MB are electrochemically similar with respect to midpoint reduction potentials of +11 mV and ˜0 mV respectively, although PEG-HCCs have a much broader range. PEG-HCCs appear to have similar effects on the electron transport chain as described for MB.

[2] = biological target: ferricytochrome C (CytCox) (Homo sapiens, UniProt P99999); test: ETS kinetics: reduction of ferricytochrome C by NADH; format: biochemical; conditions: 4 mg/L catalyst, CytCox 40 μM, NADH 0-5 mM
[3] = test system: bEnd0.3 murine cerebrovascular endothelial cells; test: Hydrogen peroxide challenge assay in bEnd.3 cells (Calcein AM live cell counts); format: cell-based; conditions: MB 0, 5, 10 and 20 μM, with or without 100 μM H2O2
Description: The differential properties of MB and PEG-HCCs were tested by using a hydrogen peroxide challenge assay in cultured cells. Hydrogen peroxide exerts toxic effects on endothelial cells through at least four routes: hydroxyl and superoxide radical formation by reacting with reduced species, nitric oxide synthase (NOS) and NADPH oxidase (NOX) stimulation and uncoupling, modulation of mitochondrial permeability, and the Fenton reaction. This employs administering the test agent after the hydrogen peroxide since efficacy under post-injury conditions would be critical for clinical translation.
PEG-HCCs and MB were compared in two standard hydrogen peroxide challenge assays. In the first experiment, bEnd0.3 murine cerebrovascular endothelial cells were treated with PEG-HCCs, and 100 μM H2O2 with and without 8 mg/L PEG-HCCs. The cells were incubated overnight and then then detached and counted using a hemocytometer and Calcein AM to label live cells. (Live cell counts n=32).
A similar assay was performed with MB at 0, 5, 10 and 20 μM given 15 minutes after initial exposure to 100 μM H2O2. […] The inclusion of 100 μM H2O2 further reduced survival.

[4] = Deferoxamine degradation in solution by 262 nm UV absorbance; format: physicochemical
Source text: FIG. 12 is a graph in which Y-axis is units of deferoxamine remaining in solution through monitoring of the 262 nm absorbance by UV spectroscopy. Trend line 1203 illustrates deferoxamine degradation in PBS solution (DEF/PBS). Trend line 1201 illustrates the degradation of deferoxamine in a PBS solution and dilute PEG-HCC (DEF/PEG). Trend line 1202 illustrates deferoxamine degradation in a PBS that had nitrogen gas bubbled through it (DEF/N2).
An additional advantage of this formulation is that it prevents the oxidative breakdown of the deferoxamine molecule, likely through an interaction with the antioxidant capacity of the parent nanomaterial (FIG. 12). This is a tremendous advantage clinically because current deferoxamine has a short shelf life when prepared for intravenous administration, which could be dramatically extended through this formulation and thereby be useful for settings other than the hospital, such as in a battle field, automobile trauma, or other setting in which tissue injury must be rapidly treated.

[5] = administered intravenously by itself; cited from earlier work

Sequence of ferricytochrome C (CytCox) (P99999 whole entry): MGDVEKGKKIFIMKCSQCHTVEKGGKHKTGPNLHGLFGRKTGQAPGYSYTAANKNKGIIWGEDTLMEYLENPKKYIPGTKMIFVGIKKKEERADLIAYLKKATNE

Structure (SMILES) | Midpoint reduction potential [1] | Vmax [2] | Cell survival [3] | Deferoxamine degradation in solution ([4]; PBS solution with dilute PEG-HCC (DEF/PEG)) | Deferoxamine degradation in solution ([4]; PBS with nitrogen gas bubbled through (DEF/N2)) | Half-life in circulation (t1/2) [5]
CN(C)c1ccc2nc3ccc(=[N+](C)C)cc-3sc2c1 [MB, Methylene blue] | ~0 mV | 1.432e-07 M/s | dose-dependent reduction in cell survival |  |  | 
CC(=O)N(O)CCCCCNC(=O)CCC(=O)N(O)CCCCCNC(=O)CCC(=O)N(O)CCCCCN [deferoxamine] |  |  |  | no detectable degradation | no detectable degradation | ≈ 0.3 h
